Test results taken from patent publication US10669272B2, “Substituted naphthyridinone compounds useful as T cell activators” (BRISTOL-MYERS SQUIBB COMPANY, priority 2018, dated 2020).
Like-named read-outs stand apart in the source and are kept apart here.

Columns and labels:
human DGKα = biological target: T1, human DGKα (Homo sapiens, UniProt P23743); experiment: DGKα LIPGLO assay (extruded liposome substrate), in vitro DGK inhibition; type: biochemical; settings: read-out: DGKa LIPGLO IC50
T1 construct: TVMV protease cleavage site (C); Hexa-His (C); made in house; host or cells: Sf9 insect cells (baculovirus, Bac-to-Bac)
T1 sequence (P23743 with tags, fused parts or gaps): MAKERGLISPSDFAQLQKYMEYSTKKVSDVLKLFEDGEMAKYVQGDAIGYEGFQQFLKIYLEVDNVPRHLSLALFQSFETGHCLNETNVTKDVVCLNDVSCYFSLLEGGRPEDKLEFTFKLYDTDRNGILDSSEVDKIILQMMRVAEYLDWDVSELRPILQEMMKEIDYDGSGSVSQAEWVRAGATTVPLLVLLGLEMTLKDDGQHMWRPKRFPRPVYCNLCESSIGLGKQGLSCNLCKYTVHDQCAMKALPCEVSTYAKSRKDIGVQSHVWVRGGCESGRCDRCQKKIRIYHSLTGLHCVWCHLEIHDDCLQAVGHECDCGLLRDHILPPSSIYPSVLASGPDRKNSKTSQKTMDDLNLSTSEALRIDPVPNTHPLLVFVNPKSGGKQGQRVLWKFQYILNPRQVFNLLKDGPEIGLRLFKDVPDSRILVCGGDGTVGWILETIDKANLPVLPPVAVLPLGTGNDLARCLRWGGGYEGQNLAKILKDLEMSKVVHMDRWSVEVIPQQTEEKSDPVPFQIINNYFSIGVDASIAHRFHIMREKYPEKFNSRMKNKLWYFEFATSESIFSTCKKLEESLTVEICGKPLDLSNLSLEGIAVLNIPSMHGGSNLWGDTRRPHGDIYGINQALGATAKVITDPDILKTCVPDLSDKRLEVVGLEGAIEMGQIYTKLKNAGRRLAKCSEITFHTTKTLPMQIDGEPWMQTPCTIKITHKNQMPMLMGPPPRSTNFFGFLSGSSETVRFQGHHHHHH

human DGKζ = biological target: T2, human DGKζ (Homo sapiens, UniProt Q13574); experiment: DGKζ LIPGLO assay (extruded liposome substrate), in vitro DGK inhibition; type: biochemical; settings: read-out: DGKz LIPGLO IC50
T2 construct: TVMV protease cleavage site (C); Hexa-His (C); made in house; host or cells: Sf9 insect cells (baculovirus, Bac-to-Bac)
T2 sequence (Q13574 with tags, fused parts or gaps isoform Q13574-4): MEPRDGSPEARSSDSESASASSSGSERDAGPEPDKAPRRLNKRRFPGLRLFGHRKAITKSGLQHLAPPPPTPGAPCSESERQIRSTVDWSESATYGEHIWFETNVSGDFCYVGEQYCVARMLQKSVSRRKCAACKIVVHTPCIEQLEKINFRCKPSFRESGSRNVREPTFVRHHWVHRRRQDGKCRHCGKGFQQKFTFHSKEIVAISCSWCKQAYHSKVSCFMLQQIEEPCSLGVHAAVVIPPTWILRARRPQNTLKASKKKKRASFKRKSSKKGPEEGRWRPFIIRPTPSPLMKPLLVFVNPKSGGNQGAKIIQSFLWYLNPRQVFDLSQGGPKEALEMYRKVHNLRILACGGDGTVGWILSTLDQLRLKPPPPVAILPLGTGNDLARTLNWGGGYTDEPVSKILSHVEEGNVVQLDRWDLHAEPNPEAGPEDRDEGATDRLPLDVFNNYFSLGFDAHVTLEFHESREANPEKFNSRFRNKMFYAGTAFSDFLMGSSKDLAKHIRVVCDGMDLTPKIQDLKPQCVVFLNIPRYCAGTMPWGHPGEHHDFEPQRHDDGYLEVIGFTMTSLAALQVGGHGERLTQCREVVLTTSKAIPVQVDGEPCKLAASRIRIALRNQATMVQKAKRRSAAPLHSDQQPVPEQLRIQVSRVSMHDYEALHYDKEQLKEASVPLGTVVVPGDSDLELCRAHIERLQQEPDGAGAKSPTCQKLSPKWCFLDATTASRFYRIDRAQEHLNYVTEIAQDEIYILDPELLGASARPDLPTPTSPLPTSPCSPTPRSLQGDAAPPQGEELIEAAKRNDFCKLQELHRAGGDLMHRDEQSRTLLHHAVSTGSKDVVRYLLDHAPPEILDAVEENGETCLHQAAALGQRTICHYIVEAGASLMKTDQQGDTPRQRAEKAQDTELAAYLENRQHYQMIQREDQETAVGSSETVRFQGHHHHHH

naïve human CD8 T cells = experiment: Human CD8 T cells IFN-γ assay; type: cell-based; settings: read-out: HuCD8 INFG Normalized EC50;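 further: Naïve human CD8 T cells stimulated with plate-bound anti-CD3 and soluble anti-CD28, IFN-γ in supernatant quantified by AlphaLISA and converted to pg/mL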
Human venous whole blood = experiment: Human whole blood IFN-γ assay; type: cell-based; settings: human whole blood, read-out: INFg Whole Blood Normalized Agonist EC50;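 further: blood from healthy donors exposed to compound for 1 h before stimulation with anti-CD3 and anti-CD28 at 1 µg/mL each, IFN-γ quantified in supernatant by AlphaLISA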
Protocol: Human Whole Blood IFN-γ Assay
Human venous whole blood (22.5 μL per well), obtained from healthy donors, was pre-treated with compounds for one hour at 37° C. in a humidified 95% air/5% CO2 incubator. The blood was stimulated with 2.5 μL anti-human CD3 and anti-CD28 mAb at a final concentration of 1 μg/mL each for 24 hours at 37° C. IFN-γ in the supernatants was measured using AlphLISA kit (Cat # AL217).

[1] = Homo sapiens, T-cell, 20 h, normalized to 3 μM reference compound with anti-CD3 plus anti-CD28 as 100% activation
[2] = Homo sapiens, 24 h, normalized to 3 μM reference compound with anti-CD3 plus anti-CD28 as 100% activation
[3] = normalized to 3 μM reference compound with anti-CD3 plus anti-CD28 as 100% activation
[4] = Homo sapiens, T-cell, 20 h, naïve human CD8 T cells, anti-CD3 plus anti-CD28, 3 μM reference compound = 100% activation
[5] = anti-CD3 plus anti-CD28, 24 hours, 3 μM reference compound = 100% activation

Structure (SMILES) | IC50 (human DGKα; liposome (LIPGLO) assay) [nM] | IC50 (human DGKζ; liposome (LIPGLO) assay) [nM] | EC50 (naïve human CD8 T cells; [1]) [nM] | EC50 (Human venous whole blood; [2]) [nM] | EC50 (naïve human CD8 T cells; [3]) [nM] | EC50 (Human venous whole blood; [3]) [nM] | IC50 (human DGKα; DGKα liposome (LIPGLO) assay) [nM] | IC50 (human DGKζ; DGKζ liposome (LIPGLO) assay) [nM] | EC50 (naïve human CD8 T cells; [4]) [nM] | EC50 (Human venous whole blood; [5]) [nM]
CC(C)[C@H]1CN(c2c(C#N)c(=O)n(C)c3ccc(C#N)nc23)CCN1C(c1ccc(F)cc1)c1ccc(F)cc1 [Example 12, (S)-8-(4-(bis(4-fluorophenyl)methyl)-3-isopropylpiperazin-1-yl)-5-methyl-6-oxo-5,6-dihydro-1,5-naphthyridine-2,7-dicarbonitrile] | 2700 | 58000 | 10000 | 13000 |  |  |  |  |  | 
COC[C@@H]1CN(c2cc(=O)n(C)c3ccc(C#N)nc23)[C@@H](C)CN1C(c1ccc(C)cc1)c1ccc(C)cc1 [Example 1156] | 2500 | 440 | 19 | 340 |  |  |  |  |  | 
CC(C)Oc1ncccc1C(c1ccc(F)cc1)N1C[C@H](C)N(c2cc(=O)n(C)c3ccc(C#N)nc23)C[C@H]1C (single isomer, unassigned) [Example 208] | 11000 | 680 |  |  | 250 | 1000 |  |  |  | 
Cn1c(=O)cc(N2CCN(C(c3ccc(F)cc3)c3ccc(F)cc3)C(C#N)C2)c2nc(C#N)ccc21 (centres unmarked) [Example 43, 8-(4-(bis(4-fluorophenyl)methyl)-3-cyanopiperazin-1-yl)-5-methyl-6-oxo-5,6-dihydro-1,5-naphthyridine-2-carbonitrile] | 6200 | 3100 | 87 | 1200 |  |  |  |  |  | 
[2H]C([2H])(c1c(F)cc(F)cc1F)N1C[C@H](C)N(c2cc(=O)n(C)c3ccc(C#N)nc23)C[C@H]1C [Example 430, 8-((2S,5R)-2,5-dimethyl-4-((2,4,6-trifluorophenyl)methyl-d2)piperazin-1-yl)-5-methyl-6-oxo-5,6-dihydro-1,5-naphthyridine-2-carbonitrile] | 410 | 2000 | 46 | 500 |  |  |  |  |  | 
C[C@@H]1CN(c2c(C#N)c(=O)n(C)c3ccc(C#N)nc23)CCN1C(c1cccc(F)c1)c1ccc(F)cn1 (single isomer, unassigned) [Example 925] |  |  |  |  |  |  | 2500 | 2800 | 91 | 710
Cc1ccc(C(c2ccc(F)cn2)N2C[C@H](C)N(c3cc(=O)n(C)c4ccc(C#N)nc34)C[C@H]2C)cc1 (single isomer, unassigned) [Example 444] | 130 | 760 | 49 | 510 |  |  |  |  |  | 
C[C@@H]1CN(c2cc(=O)n(C)c3ccc(C#N)nc23)[C@@H](C)CN1C(c1ccccc1)c1ccc(OC(F)(F)F)cc1 (single isomer, unassigned) [Example 221] | 1200 | 750 | 42 |  |  | 3000 |  |  |  | 
C[C@@H]1CN(c2cc(=O)n(C)c3ccc(C#N)nc23)[C@@H](C)CN1C(c1ccc(F)cc1)c1ccc(Cl)cn1 (single isomer, unassigned) [Example 211] | 39 | 150 | 29 | 800 |  |  |  |  |  | 
C[C@@H]1CN(c2cc(=O)n(C)c3ccc(C#N)nc23)[C@@H](C)CN1C(c1ccc(OC(F)(F)F)cc1)c1ccccn1 (single isomer, unassigned) [Example 378] | 690 | 2500 | 5.3 | 490 |  |  |  |  |  | 
C[C@@H]1CN(c2c(C#N)c(=O)n(C)c3ccc(C#N)nc23)CCN1C(c1ccc(F)cc1)c1cccc(C(F)(F)F)n1 (single isomer, unassigned) [Example 922] |  |  |  |  |  |  | 1500 | 780 | 160 | 430
Cc1nccc(C(c2ccc(F)cc2)N2C[C@H](C)N(c3cc(=O)n(C)c4ccc(C#N)nc34)C[C@H]2C)n1 (single isomer, unassigned) [Example 389] | 2200 | 1100 | 25 |  |  | 280 |  |  |  | 
C[C@@H]1CN(c2cc(=O)n(C)c3ccc(C#N)nc23)[C@@H](C)CN1C(c1ccc(F)cc1)c1cc(F)cc(F)c1 (stereo partly drawn) [Example 289, 8-[(2S,5R)-4-[(3,5-difluorophenyl)(4-fluorophenyl)methyl]-2,5-dimethylpiperazin-1-yl]-5-methyl-6-oxo-5,6-dihydro-1,5-naphthyridine-2-carbonitrile] | 3000 | 760 | 220 | 1000 |  |  |  |  |  | 
CC(c1c(F)cc(F)cc1F)N1C[C@H](C)N(c2cc(=O)n(C)c3ccc(C#N)nc23)C[C@H]1C (single isomer, unassigned) [Example 432] | 510 | 500 | 15 | 67 |  |  |  |  |  | 
CC(C)[C@H]1CN(c2cc(=O)n(C)c3ccc(C#N)nc23)CCN1C(c1ccc(F)cc1)c1ccc(F)cc1 [Example 10, (S)-8-(4-(bis(4-fluorophenyl)methyl)-3-isopropylpiperazin-1-yl)-5-methyl-6-oxo-5,6-dihydro-1,5-naphthyridine-2-carbonitrile] | 97000 | 5100 | 150 | 5000 |  |  |  |  |  | 
C[C@@H]1CN(c2c(F)c(=O)n(C)c3ccc(C#N)nc23)[C@@H](C)CN1C(c1ccc(F)cc1)c1ccc(C#N)cc1 (stereo partly drawn) [Example 328, 8-((2S,5R)-4-((4-cyanophenyl)(4-fluorophenyl)methyl)-2,5-dimethylpiperazin-1-yl)-7-fluoro-5-methyl-6-oxo-5,6-dihydro-1,5-naphthyridine-2-carbonitrile] | 1200 | 2600 |  |  | 6000 | 1000 |  |  |  | 
C[C@@H]1CN(c2cc(=O)n(C)c3ccc(C#N)nc23)[C@@H](C)CN1C(c1ccc(F)cc1)c1cccc2c1OC(F)(F)O2 (some centres unmarked) [Example 668] | 120000 | 3100 |  | 600 | 35 |  |  |  |  | 
C[C@@H]1CN(c2cc(=O)n(C)c3ccc(C#N)nc23)[C@@H](C)CN1Cc1ccc(C(F)(F)F)nc1Cl [Example 281, 8-[(2S,5R)-4-{[2-chloro-6-(trifluoromethyl)pyridin-3-yl]methyl}-2,5-dimethylpiperazin-1-yl]-5-methyl-6-oxo-5,6-dihydro-1,5-naphthyridine-2-carbonitrile] | 2800 | 4400 | 560 | 2700 |  |  |  |  |  | 
C[C@@H]1CN(c2cc(=O)n(C)c3ccc(C#N)nc23)[C@@H](C)CN1C(c1ccc(F)cc1)c1ncccc1F (single isomer, unassigned) [Example 188] | 690 | 3800 |  |  | 14 | 660 |  |  |  | 
C[C@@H]1CN(c2cc(=O)n(C)c3ccc(C#N)nc23)[C@@H](C)CN1C(c1ccccc1)c1cccc(F)c1F (stereo partly drawn) [Example 276, 8-[(2S,5R)-4-[(2,3-difluorophenyl)(phenyl)methyl]-2,5-dimethylpiperazin-1-yl]-5-methyl-6-oxo-5,6-dihydro-1,5-naphthyridine-2-carbonitrile] | 1200 | 1000 | 180 | 2400 |  |  |  |  |  | 
C[C@@H]1CN(c2cc(=O)n(C)c3ccc(C#N)nc23)[C@@H](C)CN1Cc1ccc(Cl)cc1O [Example 244, 8-[(2S,5R)-4-[(4-chloro-2-hydroxyphenyl)methyl]-2,5-dimethylpiperazin-1-yl]-5-methyl-6-oxo-5,6-dihydro-1,5-naphthyridine-2-carbonitrile] | 260 | 1100 | 110 | 1700 |  |  |  |  |  | 
C[C@@H]1CN(c2cc(=O)n(C)c3ccc(C#N)nc23)[C@@H](C)CN1C(c1ccccc1)c1c(F)cccc1F (single isomer, unassigned) [Example 272] | 990 | 450 | 79 |  |  | 2500 |  |  |  | 
C[C@@H]1CN(c2cc(=O)n(C)c3ccc(C#N)nc23)[C@@H](C)CN1Cc1cccc(C(F)(F)F)n1 [Example 278, 8-[(2S,5R)-2,5-dimethyl-4-{[6-(trifluoromethyl)pyridin-2-yl]methyl}piperazin-1-yl]-5-methyl-6-oxo-5,6-dihydro-1,5-naphthyridine-2-carbonitrile] | 870 | 1500 | 2200 | 3200 |  |  |  |  |  | 
Cc1ccc(C(c2cccc(F)c2)N2C[C@H](C)N(c3cc(=O)n(C)c4ccc(C#N)nc34)C[C@H]2C)nc1 (single isomer, unassigned) [Example 215] | 660 | 530 |  |  | 33 | 2100 |  |  |  | 
C[C@@H]1CN(c2cc(=O)n(C)c3ccc(C#N)nc23)[C@@H](C)CN1C(c1ccc(F)cc1)c1cccc(F)n1 (single isomer, unassigned) [Example 471] | 250 | 520 | 200 | 570 |  |  |  |  |  | 
COC(=O)C1CN(c2c(C#N)c(=O)n(C)c3ccc(Br)nc23)CCN1C(c1ccc(F)cc1)c1ccc(F)cc1 (centres unmarked) [Example 49, Methyl 1-(bis(4-fluorophenyl)methyl)-4-(6-bromo-3-cyano-1-methyl-2-oxo-1,2-dihydro-1,5-naphthyridin-4-yl)piperazine-2-carboxylate] | 25000 | 8700 | 490 | 6300 |  |  |  |  |  | 
